Holding throughout (assay type): cell-based, human
In assay [1] the test system is patient-derived tumor organoids (PDTOs), myxofibrosarcoma. The experiment in a line: Endoxifen screen in PDTOs: myxofibrosarcoma. The arrangement: key to Personalization Category: Personalization categories range from High, Good, Moderate, Low, to None; Personalization categories range from High, Good, Moderate, Low, to None; Personalization categories range from High, Good, Moderate, Low, to None; Personalization categories range from High, Good, Moderate, Low, to None; Personalization categories range from High, Good, Moderate, Low, to None; key to Sensitivity Category: Sensitivity categories range from High, Good, Moderate, Low, to None; Sensitivity categories range from High, Good, Moderate, Low, to None; Sensitivity categories range from High, Good, Moderate, Low, to None; Sensitivity categories range from High, Good, Moderate, Low, to None; Sensitivity categories range from High, Good, Moderate, Low, to None; AUC: unit not given beside the values. The procedure:
(§1) This example describes screening endoxifen in patient-derived tumor organoids. Endoxifen was tested as a single agent on tumor organoids derived from patients diagnosed with various cancer types using a personalized cancer treatment screening assay (PARIS© Test, SEngine Precision Medicine). The screen utilized patient-derived tumor organoids (PDTOs) along with high-throughput drug screening and machine learning-guided data analysis to quantify the efficacy of endoxifen against samples derived from individual patients diagnosed with various cancer types. PDTOs are self-organizing, three-dimensional organoid structures that recapitulate structural, functional, and genomic aspects of in vivo organs. The PDTOs were grown in culture from patient tumor biopsy samples.
(§2) Fresh patient biopsy samples received following surgery were cleaned and purified. Immune cells (e.g., lymphocytes, blood cells), cancer-associated fibroblasts, and other non-tumor cells were removed to establish pure PDTOs for endoxifen testing. The tumor organoids were grown and expanded by supplying organ- and patient-specific growth factors and nutrients. The PDTOs were treated with increasing concentrations of endoxifen ranging from about 30 nM to about 10 μM, and the drug response was measured using a luminescence readout. A lower luminescence was indicative of a stronger drug response.
(§3) The results were analyzed using a “SEngine Precision Medicine” (SPM) scoring system to assess the sensitivity and personalization of each tumor organoid to endoxifen. The SPM score correlates with clinical outcomes, such that a higher SPM score for a specific PDTO-drug combination predicts a more favorable clinical outcome following treatment of the corresponding patient with the tested drug.
(§4) This example describes testing endoxifen efficacy against 17 distinct cancer types in patient-derived tumor organoids (PDTOs). Screening of PDTOs was performed as described in EXAMPLE 1. For each PDTO sample, the drug response was measured using a luminescent readout over a range of endoxifen concentrations. The drug response was evaluated based on the area under the fitted dose response curve (AUC) and the SPM scoring system. AUC values were normalized for each PDTO. Briefly, data points at each drug concentration were first normalized to a negative control, then a dose response drug curve was approximated using a four-parameter logistic model fitted to the normalized data points. The area under the curve was calculated from the normalized curve. Normalization allowed for comparison of AUC values between patient samples. The SPM scores were based on machine learning models that incorporate values for how well the drug kill patient cells (sensitivity metric), the relative drug responses of a patient to all other patients in a sample database (personalization metric), and knowledge of clinical outcomes for patients that had been evaluated with the personalized cancer screening assay (PARIS® Test, SEngine Precision Medicine).
(§5) The SPM scoring system evaluated whether a PDTO was unresponsive or responsive to endoxifen and the degree of drug response for PDTOs that were responsive to endoxifen. […] The sensitivity category was determined from the sensitivity metric and is a measure of overall cell death of a patient's cells in response to endoxifen at six concentrations. […]

Assay [2] deals with patient-derived tumor organoids (PDTOs), cervical carcinoma. The experiment in a line: Endoxifen screen in PDTOs: cervical carcinoma. More on the design: key to Personalization Category: Personalization categories range from High, Good, Moderate, Low, to None; Personalization categories range from High, Good, Moderate, Low, to None; Personalization categories range from High, Good, Moderate, Low, to None; Personalization categories range from High, Good, Moderate, Low, to None; Personalization categories range from High, Good, Moderate, Low, to None; key to Sensitivity Category: Sensitivity categories range from High, Good, Moderate, Low, to None; Sensitivity categories range from High, Good, Moderate, Low, to None; Sensitivity categories range from High, Good, Moderate, Low, to None; Sensitivity categories range from High, Good, Moderate, Low, to None; Sensitivity categories range from High, Good, Moderate, Low, to None; AUC: unit not given beside the values. Here is the method:
as §1, §2, §3, §4, §5

Assay [3] relates to patient-derived tumor organoids (PDTOs), endometrial carcinoma. The experiment in a line: Endoxifen screen in PDTOs: endometrial carcinoma. The arrangement: key to Personalization Category: Personalization categories range from High, Good, Moderate, Low, to None; Personalization categories range from High, Good, Moderate, Low, to None; Personalization categories range from High, Good, Moderate, Low, to None; Personalization categories range from High, Good, Moderate, Low, to None; Personalization categories range from High, Good, Moderate, Low, to None; key to Sensitivity Category: Sensitivity categories range from High, Good, Moderate, Low, to None; Sensitivity categories range from High, Good, Moderate, Low, to None; Sensitivity categories range from High, Good, Moderate, Low, to None; Sensitivity categories range from High, Good, Moderate, Low, to None; Sensitivity categories range from High, Good, Moderate, Low, to None; AUC: unit not given beside the values. Here is the method: as §1, §2
(§6) The results were analyzed using a “SEngine Precision Medicine” (SPM) scoring system to assess the sensitivity and personalization of each tumor organoid to endoxifen. […]
as §4, with “Screening of PDTOs was performed as described in EXAMPLE 1.” left out, “AUC values were normalized for each PDTO. Briefly, data points at each drug concentration were first normalized to a negative control, then a dose response drug curve was approximated using a four-parameter logistic model fitted to the normalized data points.” left out, “Normalization allowed for comparison of AUC values between patient samples.” left out
as §5

Assay [4] deals with patient-derived tumor organoids (PDTOs), ovarian cancer. In words: Endoxifen screen in PDTOs: ovarian cancer. More on the design: AUC: unit not given beside the values. The note with it: each line one patient sample. Here is the method: as §1
Fresh patient biopsy samples received following surgery were cleaned and purified. Immune cells (e.g., lymphocytes, blood cells), cancer-associated fibroblasts, and other non-tumor cells were removed to establish pure PDTOs for endoxifen testing. […] The PDTOs were treated with increasing concentrations of endoxifen ranging from about 30 nM to about 10 μM, and the drug response was measured using a luminescence readout. A lower luminescence was indicative of a stronger drug response.
as §6
This example describes testing endoxifen efficacy against 17 distinct cancer types in patient-derived tumor organoids (PDTOs). […] For each PDTO sample, the drug response was measured using a luminescent readout over a range of endoxifen concentrations. The drug response was evaluated based on the area under the fitted dose response curve (AUC) and the SPM scoring system. […] The area under the curve was calculated from the normalized curve. […]
The SPM scoring system evaluated whether a PDTO was unresponsive or responsive to endoxifen and the degree of drug response for PDTOs that were responsive to endoxifen. […]

Several values for one entry are separate records, joined by “and”; a condition that tells them apart may be missing. Equal entries are not always repeated.

By IC50 is commonly meant the concentration that inhibits the measured activity by half. Take `CC/C(=C(\c1ccc(O)cc1)c1ccc(OCCNC)cc1)c1ccccc1` [Endoxifen, 4-hydroxy-N-desmethyltamoxifen]: the IC50 in assay [1] (Homo sapiens, patient 1, four-parameter logistic fit) was 7.25 µM; in assay [2] (Homo sapiens, Patient 10, four-parameter logistic fit), 3.48 µM; in assay [4] (four-parameter logistic fit), 9.26 µM and 8.13 µM and 6.7 µM and 4.87 µM and 7.26 µM and 9.3 µM and 3.08 µM and 6.91 µM and 9.33 µM and 3.45 µM and 9.41 µM and 6.22 µM and 9.47 µM and 6.17 µM and 7.21 µM and 6.13 µM and 4.14 µM and 6.06 µM and 3.59 µM and 5.48 µM and 3.69 µM and 4.28 µM and 9.16 µM. The “Personalization Category” value is recorded as “None” in assay [1] (patient 1), “Good” in assay [2] (Patient 10) and “None” in assay [3] (patient 39). Moreover, the results for the “Sensitivity Category” value in assay [1] (patient 1), in assay [2] (Patient 10) and in assay [3] (patient 39) were “None”, “Low” and “None”, respectively. The AUC in assay [1] (patient 1, normalized area under fitted dose response curve) is 0.9384; in assay [2] (Patient 10, normalized area under fitted dose response curve) it was 0.8002; in assay [3] (patient 39, normalized area under fitted dose response curve), 1.0102; in assay [4] (normalized area under fitted dose response curve) it was 0.9109 and 1.0762 and 0.8038 and 0.9291 and 0.9081 and 0.9209 and 1.0105 and 0.8454 and 0.8909 and 0.9267 and 0.9074 and 0.8343 and 0.9838 and 0.8320 and 1.0057 and 0.9637 and 1.1417 and 1.0287 and 0.8785 and 0.8853 and 0.9968 and 0.9220 and 0.8174 and 0.9760 and 0.8739 and 0.8607 and 1.0172 and 0.9895 and 0.9934. Besides, the “SPM Score” value is 1 in assay [1] (patient 1, score range 1-15); 11 in assay [2] (Patient 10, score range 1-15); 1 in assay [3] (patient 39, score range 1-15); 1 (15×) and 11 (2×) and 5 (3×) and 9 (6×) and 10 (2×) and 4 in assay [4] (score range 1-15).

These data come from patent US20250041245A1, “ENDOXIFEN FOR TREATMENT OF CANCERS” (Atossa Therapeutics, Inc., priority 2021, published 2025).
